Laboratory results as given in PMC5011342, “A high throughput drug screening assay to identify compounds that promote oligodendrocyte differentiation using acutely dissociated and purified oligodendrocyte precursor cells” (BMC Research Notes, 2016).
Like-named read-outs stand apart in the source and are kept apart here.

Columns and labels:
expanded OPCs = test: cells; settings: for viability at 0.1 µM / viability at 1 µM / viability at 10 µM: Rattus norvegicus, 72 h
Outline: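 Toxicity screen: compounds added at 0.1, 1 and 10 µM to PDGF-AA-expanded OPCs in 96-well plates, 3-day incubation at 37 °C, 10% CO2, then alamarBlue 1:10 for 4 h with fluorescence readout. Results set screening doses of 10/2, 2/0.4 or 0.4/0.08 µM.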

[1] = tested on: acutely dissociated and purified rat OPCs; test: Acute OL differentiation assay (MBP expression/cell, immunofluorescent image quantification); type: cell-based; settings: for hit in OL differentiation assay, MRF-TMC: ● = confirmed hit in this paper's assay
Outline: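 This acute differentiation assay used purified rat OPCs from postnatal day 6–7 pups, seeded into PDL/laminin-coated 96-well plates in differentiation medium lacking PDGF and FGF. Compounds were applied in quadruplicate after a 1–2 h preincubation at 37 °C, 10 % CO2, with 0.1 % DMSO negative and 40 ng/ml T3 positive controls in eight wells. After fixation on DIV4, anti-MBP immunofluorescence images yielded MBP expression/cell.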

[2] = read-out: 0.1 µM (% DMSO), alamarBlue viability of expanded OPCs, compound at 0.1 µM, sheet All Tox data
[3] = read-out: 1 µM (% DMSO), alamarBlue viability of expanded OPCs, compound at 1 µM, sheet All Tox data
[4] = read-out: 10 µM (% DMSO), alamarBlue viability of expanded OPCs, compound at 10 µM, sheet All Tox data
[5] = Rattus norvegicus, 0.4 uM test compound, relative to quetiapine, sheet "All OLga data", read-out: OL differentiation, 0.4 uM (% Quet)
[6] = Rattus norvegicus, 2 uM test compound, relative to quetiapine, sheet "All OLga data", read-out: OL differentiation, 2 uM (% Quet)
[7] = read-out: 0.1 µM (% DMSO), alamarBlue viability, NCC library compound at 0.1 µM, sheet "All Tox data"
[8] = read-out: 1 µM (% DMSO), alamarBlue viability, NCC library compound at 1 µM, sheet "All Tox data"
[9] = read-out: 10 µM (% DMSO), alamarBlue viability, NCC library compound at 10 µM, sheet "All Tox data"
[10] = Rattus norvegicus, test compound at 0.4 uM, NCC library screen, sheet "All OLga data", relative to quetiapine, read-out: 0.4 uM (% Quet)
[11] = Rattus norvegicus, test compound at 2 uM, NCC library screen, sheet "All OLga data", relative to quetiapine, read-out: 2 uM (% Quet)
[12] = alamarBlue viability of expanded OPCs, compound at 0.1 µM, relative to DMSO control
[13] = alamarBlue viability of expanded OPCs, compound at 1 µM, relative to DMSO control
[14] = alamarBlue viability of expanded OPCs, compound at 10 µM, relative to DMSO control
[15] = Rattus norvegicus, test compound at 10 uM, NCC library screen, sheet "All OLga data", relative to quetiapine, read-out: 10 uM (% Quet)

SMILES | viability at 0.1 µM (expanded OPCs; [7]) | viability at 1 µM (expanded OPCs; [8]) | viability at 10 µM (expanded OPCs; [9]) | activation at 2 µM [1, 11] | 0.1 µM (% DMSO) (expanded OPCs; [12]) | 1 µM (% DMSO) (expanded OPCs; [13]) | 10 µM (% DMSO) (expanded OPCs; [14]) | activation at 10 µM [1, 15] | other results
CN1CCN(CCCN2c3ccccc3Sc3ccc(Cl)cc32)CC1 [Prochlorperazine, reference compound] |  |  |  |  |  |  |  |  | viability at 0.1 µM (expanded OPCs; [2]): 122%; viability at 1 µM (expanded OPCs; [3]): 107%; viability at 10 µM (expanded OPCs; [4]): 12.6%; activation at 0.4 µM [1, 5]: 110%; activation at 2 µM [1, 6]: -12.5%; hit in OL differentiation assay, MRF-TMC [1]: ●
OC(CCN1CCCC1)(c1ccccc1)C1CCCCC1 (stereo not drawn) [Procyclidine] | 86.1% | 70.8% | 56.9% | 11.1% |  |  |  |  | activation at 0.4 µM [1, 10]: 12%
CC(=O)[C@H]1CC[C@H]2[C@@H]3CCC4=CC(=O)CC[C@]4(C)[C@H]3CC[C@]12C [Progesterone] |  |  |  |  |  |  |  |  | viability at 0.1 µM (expanded OPCs; [2]): 88.2%; viability at 1 µM (expanded OPCs; [3]): 102%; viability at 10 µM (expanded OPCs; [4]): 113%; activation at 2 µM [1, 6]: 21.9%; activation at 10 µM ([1]; Rattus norvegicus, 10 uM test compound, relative to quetiapine, sheet "All OLga data", read-out: OL differentiation, 10 uM (% Quet)): 23.3%
CC(CN1c2ccccc2Sc2ccccc21)N(C)C (stereo not drawn) [Promethazine] |  |  |  |  | 68.4 % DMSO | 33.2 % DMSO | 19.9 % DMSO |  | activation at 0.08 µM ([1]; Rattus norvegicus, test compound at 0.08 uM, NCC library screen, sheet "All OLga data", relative to quetiapine, read-out: 0.08 uM (% Quet)): -26.4%; activation at 0.4 µM [1, 10]: -33.6%
CCCNCC(O)COc1ccccc1C(=O)CCc1ccccc1 (stereo not drawn) [Propafenone] |  |  |  | -3.3% | 76.8 % DMSO | 58.7 % DMSO | 29.5 % DMSO |  | activation at 0.4 µM [1, 10]: -15.2%
CC(C)[N+](C)(CCOC(=O)C1c2ccccc2Oc2ccccc21)C(C)C [Propantheline] | 91.7% | 112% | 148% | 36.4% |  |  |  | 90.8% | 
CC(C)c1cccc(C(C)C)c1O [Propofol] |  |  |  |  |  |  |  |  | 0.1 µM (% DMSO) (expanded OPCs; rat): 93.1 % DMSO; 1 µM (% DMSO) (expanded OPCs; rat): 85.9 % DMSO; 10 µM (% DMSO) (expanded OPCs; rat): 87.2 % DMSO; activation at 2 µM ([1]; Rattus norvegicus, read-out: 2 uM (% Quet)): -0.9%; activation at 10 µM ([1]; Rattus norvegicus, read-out: 10 uM (% Quet)): 0.36%
CC(C)NCC(O)COc1cccc2ccccc12 (stereo not drawn) [Propranolol] |  |  |  |  | 95.6 % DMSO | 79.5 % DMSO | 32.7 % DMSO |  | activation at 0.4 µM ([1]; Rattus norvegicus, test compound at 0.4 uM, MBP expression relative to quetiapine, NCC library screen, sheet "All OLga data", read-out: 0.4 uM (% Quet)): 0.38%; activation at 2 µM ([1]; Rattus norvegicus, test compound at 2 uM, MBP expression relative to quetiapine, NCC library screen, sheet "All OLga data", read-out: 2 uM (% Quet)): -14.5%
CCCc1cc(=O)[nH]c(=S)[nH]1 [Propylthiouracil] |  |  |  | -0.9% | 90.3 % DMSO | 95.9 % DMSO | 90.8 % DMSO | 11.7% | 
CCCOc1ccc(C(=O)OCCN(CC)CC)cc1N [Proxymetacaine, reference compound] | 128% | 179% | 163% | 75.8% |  |  |  | 97.5% | EC50 ([1]; Rattus norvegicus, average EC50 for induction of OL differentiation from independent biological replicates, eight concentrations): 1 µM; hit in OL differentiation assay, MRF-TMC [1]: ●
COc1cc(/C=C/c2ccc(O)cc2)cc(OC)c1 [Pterostilbene] |  |  |  |  |  |  |  |  | viability at 0.1 µM (expanded OPCs; [2]): 101%; viability at 1 µM (expanded OPCs; [3]): 62.5%; viability at 10 µM (expanded OPCs; [4]): 27.3%; activation at 0.4 µM [1, 5]: -5.7%; activation at 2 µM [1, 6]: -7.7%
NC(=O)c1cnccn1 [Pyrazinamide] |  |  |  | -8.1% | 89.2 % DMSO | 94.5 % DMSO | 87.7 % DMSO | -1.1% | 
CN(C)C(=O)Oc1ccc[n+](C)c1 [Pyridostigmine Bromide] |  |  |  | -0.46% | 92.2 % DMSO | 86.7 % DMSO | 84.4 % DMSO | 21.5% | 
CCc1nc(N)nc(N)c1-c1ccc(Cl)cc1 [Pyrimethamine] | 100% | 99.6% | 66.5% | -12.3% |  |  |  | -35.3% | 
OCCOCCN1CCN(C2=Nc3ccccc3Sc3ccccc32)CC1 [Quetiapine hemifumarate] | 118% | 149% | 117% | 130% |  |  |  | 87.7% | 
